Results on 18 compounds are retold here after patent publication US20260374773A1, “MULTI-CYCLIC IRAK AND FLT3 INHIBITING COMPOUNDS AND USES THEREOF” (CHILDREN'S HOSPITAL MEDICAL CENTER, priority 2022, published 2026).

pIC50, pKd: −log10 of the molar value.

One experiment addresses T1, IRAK4 (Homo sapiens, UniProt Q9NWZ3).
T1 sequence (Q9NWZ3 1-460): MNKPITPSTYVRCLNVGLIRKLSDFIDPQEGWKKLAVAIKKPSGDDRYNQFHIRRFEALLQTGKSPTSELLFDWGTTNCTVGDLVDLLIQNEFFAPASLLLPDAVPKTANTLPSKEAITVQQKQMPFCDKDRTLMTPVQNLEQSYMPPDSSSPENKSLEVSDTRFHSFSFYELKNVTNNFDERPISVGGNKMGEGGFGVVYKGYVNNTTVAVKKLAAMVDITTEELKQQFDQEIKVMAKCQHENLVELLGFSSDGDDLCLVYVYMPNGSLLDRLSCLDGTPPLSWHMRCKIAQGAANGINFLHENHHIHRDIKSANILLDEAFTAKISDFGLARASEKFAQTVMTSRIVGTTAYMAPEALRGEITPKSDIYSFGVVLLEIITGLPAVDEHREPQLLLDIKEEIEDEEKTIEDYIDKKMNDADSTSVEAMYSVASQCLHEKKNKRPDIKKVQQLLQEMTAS
The experiment is described as follows: DiscoverX KINOMEscan active site-directed competition binding, IRAK4. As to conditions: Table 12; no ATP.
Source text: (§1) Kinase binding data were obtained for various exemplary compounds prepared according to Examples 1-8 using the DiscoverX KINOMEscan® active site-directed competition binding site-directed assay protocol described below. […] As a result, the data report thermodynamic interaction affinities (Kd values), rather than IC50 values that are dependent on ATP concentrations. The assay uses a DNA-tagged version of the protein kinase, and an immobilized ligand bound to a solid support. Compounds that directly or indirectly prevent kinase binding to the immobilized ligand reduce the amount of kinase captured on the solid support, which is detected using an ultra-sensitive qPCR method. Affinity constants reported from the assay have been reported to be independent of the immobilized ligand used that is coupled to the solid support (See supplemental information in Fabian, M. A. et. al., (2005) Nat. Biotechnol. 23, 329-336; Wodicka, L. M. et. al., (2010) Chem. Biol. 17, 1241-1249.)
Kinase-tagged T7 phage strains were prepared in an E. coli host derived from the BL21 strain. E. coli were grown to log-phase and infected with T7 phage and incubated with shaking at 32 °C until lysis. The lysates were centrifuged and filtered to remove cell debris. The remaining kinases were produced in HEK-293 cells and subsequently tagged with DNA for qPCR detection. Streptavidin-coated magnetic beads were treated with biotinylated small molecule ligands for 30 minutes at room temperature to generate affinity resins for kinase assays. The liganded beads were blocked with excess biotin and washed with blocking buffer (SeaBlock (Pierce), 1% BSA, 0.05% Tween 20, 1 mM DTT) to remove unbound ligand and to reduce non-specific binding. […] Test compounds were prepared as 111x stocks in 100% DMSO. Kds were determined using an 11-point 3-fold compound dilution series with three DMSO control points. All compounds for Kd measurements are distributed by acoustic transfer (non-contact dispensing) in 100% DMSO. The compounds were then diluted directly into the assays such that the final concentration of DMSO was 0.9%. All reactions were performed in polypropylene 384-well plates. Each was a final volume of 0.02 mL. The assay plates were incubated at room temperature with shaking for 1 hour and the affinity beads were washed with wash buffer (1×PBS, 0.05% Tween 20). The beads were then re-suspended in elution buffer (1×PBS, 0.05% Tween 20, 0.5 μM nonbiotinylated affinity ligand) and incubated at room temperature with shaking for 30 minutes. The kinase concentration in the eluates was measured by qPCR. Binding constants (Kds) were calculated with a standard dose-response curve using the Hill equation. The Hill Slope was set to −1. Curves were fitted using a non-linear least square fit with the Levenberg-Marquardt algorithm.
as §1, with “9-12” for “1-8”
Kinase-tagged T7 phage strains were prepared in an E. coli host derived from the BL21 strain. […]
The pKd is the negative decadic logarithm of the Kd, by convention in mol/L. Read a low pKd as a high Kd. For `COc1cn2ncc(-c3nc(N[C@H]4CNCC[C@@H]4F)c(C#N)cc3F)c2nc1C1CC1` [Compound 7, 6-(5-cyclopropyl-6-methoxypyrazolo[1,5-a]pyrimidin-3-yl)-5-fluoro-2-(((3S,4S)-4-fluoropiperidin-3-yl)amino)nicotinonitrile], the negative-log Kd (pKd) is above 9.77.

On to `COc1cn2ncc(-c3nc(N[C@H]4CNCC[C@@H]4F)c(C#N)cc3F)c2nc1C(C)(C)O` [Compound 10, 5-fluoro-2-(((3S,4S)-4-fluoropiperidin-3-yl)amino)-6-(5-(2-hydroxypropan-2-yl)-6-methoxypyrazolo[1,5-a]pyrimidin-3-yl)nicotinonitrile], for which the pKd was above 9.77.

Turning to `COc1cn2ncc(-c3nc(N[C@H]4CNCC[C@@H]4F)c(F)cc3F)c2nc1C(C)(C)O` [Compound 13, 2-(3-(3,5-difluoro-6-(((3S,4S)-4-fluoropiperidin-3-yl)amino)pyridin-2-yl)-6-methoxypyrazolo[1,5-a]pyrimidin-5-yl)propan-2-ol], the pKd was above 9.77.

The same experiment, now with this note: Table 18; no ATP.
Regarding `COc1cn2ncc(-c3nc(N[C@H]4CNCC[C@@H]4F)ncc3F)c2nc1C(C)(C)O` [Compound 6a, 2-(3-(5-fluoro-2-(((3S,4S)-4-fluoropiperidin-3-yl)amino)pyrimidin-4-yl)-6-methoxypyrazolo[1,5-a]pyrimidin-5-yl)propan-2-ol], the negative-log Kd (pKd) is 9.70.

Regarding `COc1cn2ncc(-c3ccnc(N[C@H]4CNCC[C@@H]4F)n3)c2nc1C1CC1` [Compound 7a, 4-(5-cyclopropyl-6-methoxypyrazolo[1,5-a]pyrimidin-3-yl)-N-((3S,4S)-4-fluoropiperidin-3-yl)pyrimidin-2-amine], the negative logarithm of the Kd (pKd) is 9.44. This pKd lies 0.26 log units lower than the previous one.

Turning to `COc1cn2ncc(-c3cncc(N[C@H]4CNCC[C@@H]4F)n3)c2nc1C1CC1` [Compound 12a, 6-(5-cyclopropyl-6-methoxypyrazolo[1,5-a]pyrimidin-3-yl)-N-((3S,4S)-4-fluoropiperidin-3-yl)pyrazin-2-amine], the pKd was above 9.77.

`COc1cn2ncc(-c3nc(N[C@@H]4CCCNC4)ncc3F)c2nc1C1CC1` [Compound 14a, (R)-4-(5-cyclopropyl-6-methoxypyrazolo[1,5-a]pyrimidin-3-yl)-5-fluoro-N-(piperidin-3-yl)pyrimidin-2-amine]: the negative logarithm of the Kd (pKd) was above 9.77.

With `COc1cn2ncc(-c3nc(N[C@H]4CNCC[C@@H]4F)ncc3F)c2nc1C1CC1` [Compound 15a, 4-(5-cyclopropyl-6-methoxypyrazolo[1,5-a]pyrimidin-3-yl)-5-fluoro-N-((3S,4S)-4-fluoropiperidin-3-yl)pyrimidin-2-amine], the pKd was above 9.77.

For the next experiment, the system named is MOLM14 F691L cells. As to the kind of experiment: MOLM14 F691L cell viability (Cell Titer Glo). The format is cell-based. As to conditions: Homo sapiens, MOLM-14, Table 16, 48 h. As for the experimental part:
Both cell lines have activated FLT3 receptors, each of which carry additional resistance mutations in the kinase domain (D835Y and F691L, respectively).
MOLM14 D835Y and MOLM14 F691L cells were grown in RPMI-1640 media supplemented with 20% fetal bovine serum (FBS). For viability/cytotoxicity assessments, cells were seeded into 1536-well white polystyrene tissue culture-treated Greiner plates using a Multidrop Combi dispenser (ThermoFisher), in final volume 5 μL of growth media per well, at a density of 1000 cells per well. After cell addition, 23 nL of test compound were transferred into individual wells (22 doses tested for each test compound, with a 1:2 dilution series starting at 10 μM) via a 1536 pin-tool. Bortezomib (final concentration 2.3 μM) was used as a positive control for cell cytotoxicity. Plates were incubated for 48 hours at standard incubator conditions covered by a stainless steel gasketed lid to prevent evaporation. 48 hours post compound addition, 3 μL of Cell Titer Glo (Promega) were added to each well and plates were incubated at room temperature for 15 minutes with the stainless-steel lid in place. Luminescence readings were taken using a Viewlux imager (PerkinElmer) with a 2 second exposure time per plate.
For orientation: ATP-based viability assays read luminescence as a measure of living cells.
By pIC50 is commonly meant the negative decadic logarithm of the IC50, by convention in mol/L. For `COc1cn2ncc(-c3nc(N[C@@H]4CCCNC4)ccc3F)c2nc1C1CC1` [Compound 2, (R)-6-(5-cyclopropyl-6-methoxypyrazolo[1,5-a]pyrimidin-3-yl)-5-fluoro-N-(piperidin-3-yl)pyridin-2-amine], the negative-log IC50 (pIC50) is 7.85.

The compound `COc1cn2ncc(-c3nc(N[C@H]4CNCC[C@@H]4F)ccc3F)c2nc1C1CC1` [Compound 3, 6-(5-cyclopropyl-6-methoxypyrazolo[1,5-a]pyrimidin-3-yl)-5-fluoro-N-((3S,4S)-4-fluoropiperidin-3-yl)pyridin-2-amine] gave a pIC50 of 8.22. This pIC50 lies 0.37 log units higher than the previous one.

For `COc1cn2ncc(-c3ccc(F)c(N[C@@H]4CCCNC4)n3)c2nc1C1CC1` [Compound 5, (R)-6-(5-cyclopropyl-6-methoxypyrazolo[1,5-a]pyrimidin-3-yl)-3-fluoro-N-(piperidin-3-yl)pyridin-2-amine], the negative logarithm of the IC50 (pIC50) is 6.90.

Turning to `COc1cn2ncc(-c3ccc(F)c(N[C@H]4CNCC[C@@H]4F)n3)c2nc1C1CC1` [Compound 6, 6-(5-cyclopropyl-6-methoxypyrazolo[1,5-a]pyrimidin-3-yl)-3-fluoro-N-((3S,4S)-4-fluoropiperidin-3-yl)pyridin-2-amine], the pIC50 was 7.15.

As for `COc1cn2ncc(-c3nc(N[C@@H]4CCCNC4)c(C#N)cc3F)c2nc1C(C)(C)O` [Compound 9, (R)-5-fluoro-6-(5-(2-hydroxypropan-2-yl)-6-methoxypyrazolo[1,5-a]pyrimidin-3-yl)-2-(piperidin-3-ylamino)nicotinonitrile], the pIC50 is 6.85.

`COc1cn2ncc(-c3nc(N[C@@H]4CCCNC4)c(F)cc3F)c2nc1C(C)(C)O` [Compound 11, (R)-2-(3-(3,5-difluoro-6-(piperidin-3-ylamino)pyridin-2-yl)-6-methoxypyrazolo[1,5-a]pyrimidin-5-yl)propan-2-ol] showed a pIC50 of 6.85.

The compound `COc1cn2ncc(-c3nc(N[C@H]4CNC[C@@H]4F)c(F)cc3F)c2nc1C(C)(C)O` [Compound 12, 2-(3-(3,5-difluoro-6-(((3S,4S)-4-fluoropyrrolidin-3-yl)amino)pyridin-2-yl)-6-methoxypyrazolo[1,5-a]pyrimidin-5-yl)propan-2-ol] gave a pIC50 of 6.35.

As for `COc1cn2ncc(-c3nc(N[C@H]4CNCC[C@@H]4F)c(F)cc3F)c2nc1C(C)(C)O` [Compound 13, 2-(3-(3,5-difluoro-6-(((3S,4S)-4-fluoropiperidin-3-yl)amino)pyridin-2-yl)-6-methoxypyrazolo[1,5-a]pyrimidin-5-yl)propan-2-ol], the pIC50 is 6.95.

The experiment is the same for the next values; noted with them: Homo sapiens, MOLM-14, Table 22, 48 h.
In turn, `COc1cn2ncc(-c3ccnc(N[C@H]4CNCC[C@@H]4F)n3)c2nc1C(C)(C)O` [Compound 3a, 2-(3-(2-(((3S,4S)-4-fluoropiperidin-3-yl)amino)pyrimidin-4-yl)-6-methoxypyrazolo[1,5-a]pyrimidin-5-yl)propan-2-ol] had a pIC50 of 6.25.

Turning to `COc1cn2ncc(-c3nc(N[C@@H]4CCCNC4)ncc3F)c2nc1C(C)(C)O` [Compound 4a, (R)-2-(3-(5-fluoro-2-(piperidin-3-ylamino)pyrimidin-4-yl)-6-methoxypyrazolo[1,5-a]pyrimidin-5-yl)propan-2-ol], the pIC50 is 7.00.

In turn, `COc1cn2ncc(-c3nc(N[C@H]4CNC[C@@H]4F)ncc3F)c2nc1C(C)(C)O` [Compound 5a, 2-(3-(5-fluoro-2-(((3S,4S)-4-fluoropyrrolidin-3-yl)amino)pyrimidin-4-yl)-6-methoxypyrazolo[1,5-a]pyrimidin-5-yl)propan-2-ol] showed a pIC50 of 6.65.

In turn, `COc1cn2ncc(-c3nc(N[C@H]4CNCC[C@@H]4F)ncc3F)c2nc1C(C)(C)O` [Compound 6a, 2-(3-(5-fluoro-2-(((3S,4S)-4-fluoropiperidin-3-yl)amino)pyrimidin-4-yl)-6-methoxypyrazolo[1,5-a]pyrimidin-5-yl)propan-2-ol] had a pIC50 of 7.35.
